Reference: article PMC11087982, “In vitro and in vivo activities of a trithiolato-diRuthenium complex conjugated with sulfadoxine against the apicomplexan parasite Toxoplasma gondii” (International Journal for Parasitology: Drugs and Drug …, 2024)

Assays:
[1] = test system: T. gondii β-gal tachyzoites; assay: T. gondii β-Gal tachyzoite proliferation in HFF monolayers (β-galactosidase fluorometric assay); type: cell-based, Toxoplasma gondii
Description: Effects of drugs on the proliferative capacity of T. gondii tachyzoites were investigated using a transgenic T. gondii RH strain constitutively expressing β-Galactosidase (T. gondii β-Gal ([Dc et al., 1997]);). Assays were carried out in 96 well plates in the presence or absence of the different compounds. For the quantification of β-Galactosidase activity, a fluorometric assay was applied as previously described ([Desiatkina et al., 2021]; [Păunescu et al., 2021]).

HFF = HFF host cell cytotoxicity, Alamar blue viability assay; type: cell-based, human; conditions: 72 h, uninfected HFF
Description: To determine cytotoxicity of compounds on host cells, HFF were grown to confluency in 96 well plates and were treated with different concentrations of the drugs solubilized in medium during 72 h at 37 °C/5% CO2, or were treated with the corresponding concentration of DMSO only ([Desiatkina et al., 2020]; [Holzer et al., 2023]; [Păunescu et al., 2021]). The Alamar blue viability assay was used as previously described ([Desiatkina et al., 2020], [2021], [2022a], [2022b]; [Holzer et al., 2023]; [Păunescu et al., 2021]). In short, resazurin was added to each well at 0.01 mg/ml, and subsequently fluorescence of the produced resorufin was measured at excitation wavelength 544/20 nm and emission wavelength 590/20 nm using a Hidex Sense microplate reader (Hidex, Turku, Finland).

T. gondii ShSp1 oocysts = assay: In vivo efficacy in CD1 mice orally infected with T. gondii ShSp1 oocysts (qPCR parasite load)
Excerpt: Female CD1 mice, 6 weeks of age, were purchased from Charles River (Sulzberg, Germany). They were housed in temperature-controlled animal facilities and were randomly distributed into 4 groups (8 mice/group, with 4 mice per cage), and food and water ad libitum. At the age of 8 weeks, mice were experimentally infected by peroral application of 120 TgShSp1 (type II) oocysts ([Imhof et al., 2021]). Placebo and RU-SDX treatments were started at 3 days p. i., with mice being treated orally by gavage. Group 1 (placebo control) received 100 μl corn oil supplemented with 10% DMSO, while group 2 (treatment group) was administered 5 mg/kg RU-SDX solubilized in 100 μl corn oil/10 % DMSO. These treatments were repeated on days 5, 7, 9 and 11 p. i. During the entire experiment mice were monitored for potential health issues at least twice per day. All mice were sacrificed at 30 days p. i. Brain, eyes, heart, and liver were collected and stored at −20 °C for subsequent DNA extraction and quantification of T. gondii load by quantitative PCR (qPCR).
Genomic DNA was extracted from the collected samples using the NucleoSpin DNA RapidLyze Kit (Macherey-Nagel, Oensingen, Switzerland) and DNA concentrations were quantified by the QuantiFluor double-stranded DNA (dsDNA) system (Promega, Madison, WI, USA) as previously described ([Imhof et al., 2021]). DNA concentrations were adjusted to 5 ng/μl, and qPCR reactions were performed in a final volume of 10 μl containing 1x SensiFast master mix (Bioline, Meridian Bioscience), 0.5 μM of reverse and forward primers, 0.1 μM of 529rpeQ-P probe, 0.3 mM dUTP, and one unit of heat-labile Uracil DNA Glycosylase (UDG) ([Hänggeli et al., 2022]). Amplification was performed in the Bio-Rad CFX 96 QPCR instRUment (Biorad) using the following thermal profile: (1) initial incubation of 10 min at 42 °C, followed by (2) denaturation step of 5 min at 95 °C and (3) 50 cycles of two-step amplification (10 s at 95 °C and 20 s at 62 °C). For quantification, a standard curve was made based on a 10-fold serial dilution of DNA from T. gondii, equivalent to tachyzoite numbers ranging from 1 × 10^4 to 1 per 4 μl. The parasite load was expressed as number of tachyzoites per 20 ng of DNA. Statistical analyses were performed using GraphPad Prism version 5.0 (GraphPad Software, La Jolla, CA, USA). Comparisons of the parasite burdens between groups were conducted with the non-parametric Kruskal-Wallis test, followed by the Mann-Whitney-U test.

[2] = test system: T. gondii Me49 tachyzoites; assay: Transmission electron microscopy of treated tachyzoites in HFF; type: cell-based, Toxoplasma gondii; conditions: 0.5 μM, 6 h of treatment
Description: We examined the cellular ultrastructure of T. gondii tachyzoites treated with RU-SDX by TEM as described previously ([Anghel et al., 2021]; [Desiatkina et al., 2020]). Briefly, confluent HFF grown in T25 flasks were infected with 10^5 T. gondii Me49 tachyzoites, and infected cultures were maintained for 24 h at 37 °C/5% CO2. Subsequently, the medium was removed and medium containing 0.5 μM RU-SDX or 0.05% DMSO (as solvent control) was added, and cultures were maintained at 37 °C/5% CO2 during 6, 24 or 48 h. At the different timepoints the samples were fixed and processed for TEM ([Anghel et al., 2021]; [Desiatkina et al., 2020]). For this, cultures were washed with 0.1 M sodium cacodylate buffer (pH 7.3) and fixed in 2% glutaraldehyde in cacodylate buffer for 10 min at room temperature (RT). The fixed infected monolayers were gently scraped from the flasks, transferred into Eppendorf tubes, washed with in ice-cold 0.1 M sodium cacodylate buffer and fixed in 2% glutaraldehyde in cacodylate buffer for 2 h at RT. Further preparation steps included post-fixation in 2% osmium tetroxide, pre-staining, stepwise dehydration in ethanol, and embedding in Epon-812 resin. In some instances, T25 flasks containing HFF monolayers infected with T. gondii Me49 tachyzoites were treated with FCCP and CCCP for 10 min at 80 and 50 μM, respectively, and samples were prepared for TEM as described above. […]

[3] = Formulation of the compound for oral gavage (precipitation); type: physicochemical; conditions: compared with 5 mg/kg in corn oil containing 10% DMSO; data not shown
Description: A preliminary in vivo study was conducted in outbred CD1 mice that were experimentally infected with TgShSp1 oocysts.

Structure (SMILES): CC(C)(C)c1ccc(C[S-])cc1.CC(C)(C)c1ccc(C[S-])cc1.COc1ncnc(NS(=O)(=O)c2ccc(NC(=O)Cc3ccc([S-])cc3)cc2)c1OC.Cc1ccc(C(C)C)cc1.Cc1ccc(C(C)C)cc1.[Cl-].[Ru+2].[Ru+2] [RU-SDX]
- T. gondii proliferation in relation to the non-treated control ([1]; 0.1 μM): 77%
- T. gondii proliferation in relation to the non-treated control ([1]; 1 μM): 2%
- proliferation (% of control ± SD) ([1]; 2.5 μM): ^∗∗∗0 ± 0%
- proliferation (% of control ± SD) ([1]; 5 μM): ^∗∗∗0 ± 0%
- IC50 ([1]; drug treatment applied concomitantly to infection of HFF monolayers): 112 nM
- IC50 ([1]; drug treatment initiated 3 h post infection, 95% CI in brackets): 145 nM
- IC50 ([1]; drug treatment initiated concomitantly to infection, 95% CI in brackets): 112 nM
- IC50 ([1]; drug treatment on already infected HFF): 145 nM
- IC50 ([1]; tachyzoites grown in HFF monolayers, drug added concomitantly to or after infection): < 150 nM
- viability (% of control ± SD) (HFF; 2.5 μM): 79 ± 4%
- viability (% of control ± SD) (HFF; 5 μM): 64 ± 4%
- viability (% of control ± SD) (HFF; 10 μM): 31 ± 9%
- cerebral parasite load compared to placebo control group (T. gondii ShSp1 oocysts; 5 mg/kg oral gavage, 5 treatments from day 3 p.i., brain at 30 days p.i., P = 0.37): did not result in any reduction
- parasite load in eyes compared to placebo control group (T. gondii ShSp1 oocysts; 5 mg/kg oral gavage, 5 treatments from day 3 p.i., eyes at 30 days p.i.): significantly reduced
- parasite load in the heart compared to placebo control group (T. gondii ShSp1 oocysts; 5 mg/kg oral gavage, 5 treatments from day 3 p.i., heart at 30 days p.i.): significantly reduced
- toxicity by clinical signs in treated mice (T. gondii ShSp1 oocysts; 5 mg/kg oral in corn oil/10% DMSO, 5 treatments): not toxic
- ultrastructural changes in tachyzoites (TEM) [2]: mitochondrial matrix appeared to have lost its characteristic electron dense texture in many areas
- behaviour at higher concentrations or in other vehicles (PBS ± DMSO, H2O ± DMSO, H2O + propane-1,2-diol) [3]: precipitation
